# Test system: Escherichia coli ATCC strain number 8739
# Assay: Enteral antimicrobial laboratory evaluation: inoculated tryptic soy agar plates sprayed with test mixture, enumerated after three days
# Type: cell-based
# Conditions: TSA plates sprayed, phosphoric acid added to pH approximately 3.2 simulating mammalian stomach
# Method: In particular, testing was conducted as follows:
# Six (6) identical conventional tryptic soy agar (“TSA”) plates were inoculated with Escherichia coli of the ATCC strain number 8739, which, as previously discussed, is a feces derived strain typical of that expected in the applications of the present invention.
# The inoculated plates were then separated into three (3) groups of two (2) plates each, which groups were treated as follows: • a. […] Group III was sprayed with purified water only (in order to establish a negative control for the evaluation).
compound,measurement,value
"O=P(O)(O)O [phosphoric acid solution, phosphoric acid]",growth of Escherichia coli,only a minor reduction in the growth
